# Source: US7709516B2, “Helix 12 directed non-steroidal antiandrogens” (Endorecherche, Inc., priority 2005, dated 2010)
# Read-outs that look alike come from different tables or passages of the source.
# Key:
# [1] = tested on: Shionogi mouse mammary carcinoma cells; assay: Androgenic/antiandrogenic activity: inhibition of DHT-stimulated Shionogi cell number; type: cell-based; settings: DHT-stimulated Shionogi cell number; for IC50: Mus musculus; for Shionogi Antiandrogenic Activity IC50: Table 3
# [2] = tested on: rat prostate, seminal vesicle, levator ani muscle; assay: Systemic antiandrogenic activity in orchidectomized immature male rats with DHT implant; type: in vivo; settings: rat +DHT, 0.5 mg/animal daily 7 days; for inhibition in vivo at 0.5 mg: Rattus norvegicus, 168 h, s.c. or p.o. (route not marked)
# [3] = tested on: sebaceous glands of the left ear; assay: Topical antiandrogenic activity, ear sebaceous glands model in the male hamster; type: in vivo; settings: 3 μg daily dose for 14 days
# Protocol: Column 5 represents the percentage of inhibition of the area of the sebaceous glands of the left ear of the treated animals versus the area of the sebaceous glands of the left ear of the control animals. A 3 μg-daily dose for 14 days of tested compound dissolved in ten μL solution of ethanol: propylene Glycol (1:1; v: v) applied onto a region between the two cartilage ridges of the ventral surface of left pinna.
# D—In vivo Assessment of Topical Antiandrogenic Activity
# The antiandrogenic activity of compounds for topical use was determined using the ear sebaceous glands model in the male hamster.
# Male Golden Syrian Hamsters (SYR) of 110-120 g were obtained from Harlan Sprague-Dawley (Madison, USA) and housed up to 2 per plastic cage in a temperature (22±3° C.) and light (12 h light/day, lights on at 7h15)-controlled environment. The hamsters were fed with Certified Rodent Diet 5002 (pellet) and had access to tap water ad libitum. […]
# The total area of the sebaceous glands (μm^2) in each examined field was calculated by the Image Analyser. We also measured the total area, which has the length of 0.953 mm and the height between stratum granulosum and the cartilage. […] Thus, for each ear, two sections were cut and two fields from each section were analyzed. The total of the four readings was averaged and the mean standard error of the mean was calculated by the image analyzer. […]
# Human Androgen Receptor = target: T1, Human Androgen Receptor (Homo sapiens, UniProt P10275); assay: Androgen receptor binding assay ([3H]R1881, HAP) in cytosol of HEK-293 cells transfected with hAR; settings: relative to R1881 = 100, transfected cells
# T1 sequence (P10275 1-920): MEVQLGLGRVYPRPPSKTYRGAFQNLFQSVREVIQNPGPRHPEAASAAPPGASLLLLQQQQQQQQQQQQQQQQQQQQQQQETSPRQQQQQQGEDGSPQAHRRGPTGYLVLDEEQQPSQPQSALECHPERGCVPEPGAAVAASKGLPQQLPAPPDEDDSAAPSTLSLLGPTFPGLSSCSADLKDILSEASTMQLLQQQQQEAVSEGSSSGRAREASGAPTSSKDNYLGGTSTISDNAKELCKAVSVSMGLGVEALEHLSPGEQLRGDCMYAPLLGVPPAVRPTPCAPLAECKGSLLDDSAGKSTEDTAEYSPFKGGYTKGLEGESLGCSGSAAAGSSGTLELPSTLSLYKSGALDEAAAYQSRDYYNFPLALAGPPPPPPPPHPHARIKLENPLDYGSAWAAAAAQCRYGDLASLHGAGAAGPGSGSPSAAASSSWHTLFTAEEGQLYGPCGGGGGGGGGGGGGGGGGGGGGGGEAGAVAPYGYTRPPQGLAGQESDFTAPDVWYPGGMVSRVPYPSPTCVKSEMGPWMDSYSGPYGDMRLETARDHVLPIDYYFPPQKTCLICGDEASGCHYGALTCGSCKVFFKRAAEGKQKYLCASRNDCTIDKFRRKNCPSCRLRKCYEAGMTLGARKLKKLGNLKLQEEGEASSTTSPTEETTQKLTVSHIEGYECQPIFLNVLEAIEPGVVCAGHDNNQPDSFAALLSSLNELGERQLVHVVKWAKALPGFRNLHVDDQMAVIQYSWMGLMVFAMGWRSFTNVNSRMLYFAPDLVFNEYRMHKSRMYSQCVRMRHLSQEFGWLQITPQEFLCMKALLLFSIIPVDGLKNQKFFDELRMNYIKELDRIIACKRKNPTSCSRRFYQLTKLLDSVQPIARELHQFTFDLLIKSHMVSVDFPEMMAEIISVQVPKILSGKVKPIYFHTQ
# [4] = tested on: rat prostate, seminal vesicle, levator ani muscle; assay: Systemic androgenic activity in orchidectomized immature male rats; type: in vivo; settings: 168 h, 0.2 mg/animal daily 7 days
# Text: Column 7 represents the % of androgenic efficacy in rat prostate, expressed in percentage of stimulation:
# W is the weight of the prostate.
# Column 8 represents the % of androgenic efficacy in rat seminal vesicle, expressed in percentage of stimulation:
# W is the weight of the seminal vesicle.
# Column 9 represents the % of androgenic efficacy in rat levator ani muscle, expressed in percentage of stimulation: […]
# Immature male rats (Crl:CD(SD)Br) 22 to 24-day old were obtained from Charles-River, Inc. (St-Constant, Quebec, Canada) and housed up to 5 per cage in plastic bins in a temperature (23±1° C.)— and light (12 h light/day, lights on at 7h15)— controlled environment. The rats were fed rodent chow and tap water ad libitum. The day following their arrival, the animals were orchidectomized (CX) under Isoflurane anesthesia via scrotal route and randomly assigned to groups of 5 animals.
# To evaluate the antiandrogenic activity, tested compounds were administered subcutaneously or orally once daily at a dose of 0.5 mg/animal for antiandrogenitic activity or 0.2 mg/animal for androgenic activity for 7 days (SD 1 to 7). Compounds were solubilized (when possible) in dimethylsulfoxide (DMSO, 10% final concentration) and administered as suspension in 0.4% methylcellulose. […] One group of animals received the antiandrogen Flutamide as reference. The animals were killed by cervical dislocation under isoflurane anesthesia on the 8th morning following castration. The ventral prostate and seminal vesicles were rapidly dissected and weighed.
# 3. Calculations and Statistical Analysis
# W is the weight of the prostate, the seminal vesicle or levator ani.
# [5] = read-out: Shionogi Antiandrogenic Activity IC50, Table 3, agonist reported when compound stimulates the cells
# [6] = sc, Table 3, s.c (marked in prostate cell), read-out: % Stimulation Lev.Ani
# [7] = sc, Table 3, s.c (marked in prostate cell), read-out: % Stimulation SV
# [8] = sc, Table 3, s.c, read-out: % Stimulation Prostate
# [9] = agonist reported when compound stimulates the cells
# [10] = Table 3, p.o (marked in prostate cell)
Compound,"IC50 [1, 5]","% Inhibition Prostate ([2]; Table 3, s.c)",Human Androgen Receptor Binding (%) RBA R1881 = 100 (Human Androgen Receptor; Table 3),"change in vivo at 0.2 mg [4, 6]","change in vivo at 0.2 mg [4, 7]","change in vivo at 0.2 mg [4, 8]","Shionogi Antiandrogenic Activity IC50 [1, 9]",also measured
"CCC(c1ccc(OCCC2(O)CCN(c3ccc(C#N)c(C(F)(F)F)c3)CC2)cc1)N1CCCC1 (centres unmarked) [EM-7893, 4-(4-{2-[4-(1-propyl-pyrolidine)-phenoxy]-ethyl}-4-hydroxy-piperidin-1-yl)-2-trifluoromethyl-benzonitrile]",–,–,–,–,–,–,–,"IC50 ([1]; read-out: Shionogi Antiandrogenic Activity IC50, Table 2): 5.1 nM; IC50 ([1]; read-out: Shionogi Antiandrogenic Activity IC50, Table 4): 5.1 nM; inhibition in vivo at 0.5 mg ([2]; read-out: Lev Ani % inhibition, Table 2, levator ani): 26%; inhibition in vivo at 0.5 mg ([2]; read-out: Prostate % inhibition, Table 2): 6%; inhibition in vivo at 0.5 mg ([2]; read-out: SV % inhibition, Table 2, seminal vesicle): 38%; Hamster Topical 3 μg dose % inhibition vs cx (area of sebaceous glands of the left ear) [3]: 47%; Human Androgen Receptor Binding (%) RBA R1881 = 100 (Human Androgen Receptor; Table 2): 10.3%; Human Androgen Receptor Binding (%) RBA R1881 = 100 (Human Androgen Receptor; Table 4): 10.3%"
Cc1c(N2C(=O)C(C)(C)N(CCCOc3ccc(CNC(C)C)cc3)C2=S)ccc(C#N)c1Cl [EM-7198],10 nM,15 s.c %,44%,182%,106%,65%,–,–
Cc1cc(CN2CCOCC2)ccc1OCCCN1C(=S)N(c2ccc(C#N)c(Cl)c2C)C(=O)C1(C)C [EM-8255],–,17 s.c %,76%,80%,31%,32%,Partial agonist,–
Cc1c(N2C(=O)C(C)(C)N(CCCOc3ccc(CN(C)C)cc3)C2=S)ccc(C#N)c1Cl [EM-7298],8.2 nM,36 s.c %,61%,103%,29%,33%,–,"% Inhibition Lev.Ani ([2]; Table 3, s.c (marked in prostate cell)): 14%"
"Cc1c(N2C(=O)C(C)(C)N(CCCOc3ccc(S(C)(=O)=O)cc3)C2=S)ccc(C#N)c1Cl [EM-8260, 4-(3-{3-[4-(1-methylsulfonyl)-phenoxy]-propyl}-4,4-dimethyl-5-oxo-2-thioxo-imidazolidin-1-yl)-2-chloro-3-methyl-benzonitrile]",–,–,17%,–,–,–,Partial agonist,"% Inhibition Lev.Ani [2, 10]: 24%; % Inhibition SV [2, 10]: 54%; % Inhibition Prostate ([2]; Table 3, p.o): 40 p.o %; change in vivo at 0.2 mg ([4]; po, Table 3, p.o (marked in prostate cell), read-out: % Stimulation Lev.Ani): 74%; change in vivo at 0.2 mg ([4]; po, Table 3, p.o (marked in prostate cell), read-out: % Stimulation SV): 28%; change in vivo at 0.2 mg ([4]; po, Table 3, p.o, read-out: % Stimulation Prostate): 27%"
